# Data published in patent US20180169045A1, “AMINO ACID COMPOSITIONS AND METHODS FOR THE TREATMENT OF LIVER DISEASES” (AXCELLA HEALTH INC., priority 2016, published 2018).
# Key:
# Assay type in all cases: cell-based
# [1] = test system: Primary human PMBC derived macrophages; test: LPS-induced TNFa secretion in primary human monocyte-derived macrophages (ELISA); design: TNFa Measurements Mean (baseline subtracted): unit not given beside the values; conditions: for LPS-induced TNFa secretion, in words: primary human monocyte-derived macrophages
# Method: Isolation of Peripheral Blood Mononuclear Cell (PBMC) Unpurified buffy coats (Research Blood Components) were carefully poured into 50 mL centrifuge tubes and diluted with room temperature Dulbecco's Phosphate Buffered Saline (dPBS) with Calcium and Magnesium (Gibco). Diluted buffy coats were further divided into four total 50 mL centrifuge tubes at 20 mL per tube. Lymphocyte Separation Medium (Corning) was carefully pipetted to the bottom of each centrifuge tube. Mixtures were centrifuged at 850×g for 32 minutes at 20° C. with 0 deceleration and acceleration.
# CD14+ cells were selected using EasySep™ Human CD14 Positive Selection Kit II ([…] Technologies). Cells were resuspended in cold EasySep™ Buffer ([…] Technologies) at 1×10^8 cells/mL. A total of 100 uL/mL EasySep™ Human CD14 Positive Selection Cocktail II was added to the cell suspension, mixed, and incubated at room temperature for 10 minutes. A total of 100 uL/mL RapidSpheres were added to the mixture and incubated at room temperature for 3 minutes after mixing, then RoboSep buffer was added to bring up the total volume to 10 mL. The mixture in a 15 mL tube was placed in magnet and incubated at room temperature for 3 minutes. Supernatant was discarded and 10 mL fresh EasySep™ buffer was added to 15 mL tube. The addition of RoboSep buffer, mixing, and discarding of supernatant was repeated two more times.
# Negative and positive fractions were centrifuged at 490×g for 5 minutes at 20° C. with acceleration of 9, deceleration of 9, and resuspended in DMEM (Gibco) and 10% Heat Inactivated Fetal Bovine Serum (Atlanta Bio) and Penicillin/Streptomycin. Cells were counted and centrifuged again at 490×g for 5 minutes at 20° C. with acceleration of 9, deceleration of 9. After centrifugation, cell were resuspended in DMEM (Gibco) and 10% Heat Inactivated Fetal Bovine Serum (Atlanta Bio) and Penicillin/Streptomycin containing 500 U/mL […] and plated at 1-2×10^6 cells/mL on 10 cm tissue culture plates. Cells were kept in 37° C., 5% CO2 in between feedings/harvest.
# Cells were fed every 3-4 days by removing media and unattached cells, centrifuging at 490×g for 5 minutes at 20 C with acceleration of 9, deceleration of 9, and resuspending in fresh DMEM (Gibco) and 10% Heat Inactivated Fetal Bovine Serum (Atlanta Bio) and Penicillin/Streptomycincontaining 500 U/mL GM-CSF. Resuspended cells were seeded back onto 10 cm tissue culture plates and incubated at 37° C., 5% CO2.
# After complete cell attachment, culture supernatant was removed and cultures were washed 1× with 5 mL PBS. A total of 3 mL room temperature Cellstripper was added and cultures were incubated at 37° C., 5% CO2 for approximately 10 minutes until cells were rounded and beginning to detach. Cell scraper was used to completely detach cells from plate. Collected cell were spun down at 490 g for 5 min at room temperature and resuspended in 10% DMSO in Heat Inactivated Fetal Bovine Serum and immediately frozen in −80 C.
# Primary human PMBC derived macrophages were seeded on day 0 at 3.0E4 cells per well in 96-well microplates (ThermoFisher) in Dulbecco's Modified Eagle Medium (DMEM) (Gibco) supplemented with penicillin-streptomycin (Hyclone) and 10% heat inactivated fetal bovine serum (HI-FBS) (Atlanta Bio) and incubated overnight at 37° C., 5% CO2. On day 1, cells were washed once with 150 uL per well DPBS (Gibco) and treated with 75 uL of: • a. Amino acid free DMEM (US Biologicals) containing a defined custom amino acid concentration based on the mean physiological concentrations in blood based on values published in the Human Metabolome Database (HMDB), with 6 mM glucose, 1 mM sodium pyruvate, 10 mM HEPES, 0.2% primocin (InVivoGen); or • b. The same medium described above with one amino acid at various concentrations including complete dropout. […]
# [2] = test system: Primary human hepatic stellate cells; test: TNFα-induced MCP-1 secretion in primary human hepatic stellate cells (ELISA); conditions: for MCP-1 chemokine secretion, in words: primary human hepatic stellate cells from two donors, 3 ng/mL TNFα, 12 h
# Method: Primary human hepatic stellate cells were obtained from Samsara Sciences based on the following criteria for selecting donors: adult age (between 18 and 50 years), normal BMI (>18.5 and <25), and absence of confounding liver disease. Primary human hepatic stellate cells grown in Complete HSC Medium to ˜80% confluence in T75 or T150 flasks below passage 10 were seeded into sterile, collagen I coated, 96-well optical plastic microplates (ThermoScientific, 152036) at 4000 cells per well ([…]) and incubated for 6 hours at 37° C., 5% CO2 in a humidified incubator.
# After 6 hours, plates were removed from the incubator and the medium gently pipetted off and washed once with 150 μL per well DPBS. The DPBS was removed and the pretreatment medium (±single amino acid dropout, 1×HMDB DMEM+3% dialyzed FBS+0.2% Primocin, ±supplemental amino acid dose; see experiment for medium composition) was applied to the cells at 150 μL per well. Plates were returned to the incubator overnight, ˜14-15 hours.
# After overnight pretreatment, the medium was removed from the cells, and the same pretreatment medium, now supplemented with 3 ng/mL TNFα is applied. Each plate contained 3 ng/mL TNFα in 1× human plasma amino acid (HMDB or PAA) concentration medium, 0 ng/mL in 1×HMDB, and 3 ng/mL TNFα+50 nM Bengamide in 1×HMDB to serve as controls. Plates were incubated for 12 hours at 37° C., 5% CO2.
# After 12 hour stimulus with TNFα, supernatant was removed and frozen at −80° C. in two separate aliquots. Plates were washed gently once with DPBS and 100 μL per well of 1×HMDB DMEM+3% dialyzed FBS+0.2% Primocin+10% CCK-8 viability reagent (Dojindo). Plates were incubated for 1 hour at 37° C., 5% CO2.
# After 1 hour of incubation, viability was measured on the Synergy plate reader (Absorbance at 977 (test), 900 (reference), and 450 (CCK8) nm). Immediately, the medium was removed and the plates were fixed with 70 μL per well 4% paraformaldehyde in PBS at room temperature for 20 minutes, followed by two 150 μL PBS washes, and stored with 100 μL per well PBS at 4° C. until immunofluorescence staining.
# Human CCL2/MCP1 and Human IL-6 were measured by ELISA (Human […] DuoSet ELISA, R&D Systems; Human IL-6 DuoSet ELISA, R&D Systems) at 1/5 and 1/20 dilution in 1× Reagent Diluent (Reagent Ancillary Kit 2, R&D Systems). Data were normalized to the specific per well cell density determined by Hoechst stained nuclei count.
# [3] = test system: LX-2 hepatic stellate cells; test: TGFβ1-induced fibrogenic gene expression (Col1a1, Acta2, Timp2) in LX-2 cells, qRT-PCR; conditions: TGFβ1 5 ng/mL, combinations at 40× HMDB concentrations, N-acetylcysteine 10 mM
smiles,measurement,setting,value
CC(=O)N[C@@H](CS)C(=O)O [N-acetylcysteine],TNFa Measurements Mean (baseline subtracted),"[1]; Donor 1, Conc. 0 X (baseline), LPS 0.15 ng/mL",0
same,"LPS-induced TNFa secretion, in words","[1]; Donor 1, 0.15 ng/mL LPS",significantly reduced
same,"LPS-induced TNFa secretion, in words","[1]; Donor 2, 0.15 ng/mL LPS",significantly reduced
same,"LPS-induced TNFa secretion, in words","[1]; Donor 3, 0.15 ng/mL LPS",significantly reduced
same,"Fold Change MCP1 Secretion Normalized Per Cell, Mean","[2]; donor 4, 1000 μM",0.6437
same,"Fold Change MCP1 Secretion Normalized Per Cell, Mean","[2]; donor 4, 2500 μM",0.8033
same,"Fold Change MCP1 Secretion Normalized Per Cell, Mean","[2]; donor 4, 5000 μM",0.6728
same,"Fold Change MCP1 Secretion Normalized Per Cell, Mean","[2]; donor 4, 10000 μM",0.5011
same,"Fold Change MCP1 Secretion Normalized Per Cell, Mean","[2]; donor 4, Conc. 5 X",0.6437
same,"Fold Change MCP1 Secretion Normalized Per Cell, Mean","[2]; donor 4, Conc. 10 X",0.8033
same,"Fold Change MCP1 Secretion Normalized Per Cell, Mean","[2]; donor 4, Conc. 20 X",0.6728
same,"Fold Change MCP1 Secretion Normalized Per Cell, Mean","[2]; donor 4, Conc. 40 X",0.5011
same,"MCP-1 chemokine secretion, in words",[2],significantly reduced MCP-1 secretion in both donors
same,"Col1a1 gene expression, in words",[3],reduced
same,"Timp2 gene expression, in words",[3],reduced
"NC(=O)CC[C@H](N)C(=O)O [Glutamine, L-Glutamine]",TNFa Measurements Mean (baseline subtracted),"[1]; Donor 3, Conc. 749 μM (baseline)",0
same,"LPS-induced TNFa secretion, in words","[1]; Donor 2, 0.15 ng/mL LPS",increased
same,"LPS-induced TNFa secretion, in words","[1]; Donor 3, 0.15 ng/mL LPS",increased
same,"Fold Change MCP1 Secretion Normalized Per Cell, Mean","[2]; donor 3, 749 μM",0.7048
same,"Fold Change MCP1 Secretion Normalized Per Cell, Mean","[2]; donor 3, 3747 μM",0.6036
same,"Fold Change MCP1 Secretion Normalized Per Cell, Mean","[2]; donor 3, 11242 μM",0.6106
same,"Fold Change MCP1 Secretion Normalized Per Cell, Mean","[2]; donor 3, 22484 μM",0.6212
same,"Fold Change MCP1 Secretion Normalized Per Cell, Mean","[2]; donor 4, 749 μM",0.7782
same,"Fold Change MCP1 Secretion Normalized Per Cell, Mean","[2]; donor 4, 3747 μM",0.6639
same,"Fold Change MCP1 Secretion Normalized Per Cell, Mean","[2]; donor 4, 11242 μM",0.7129
same,"Fold Change MCP1 Secretion Normalized Per Cell, Mean","[2]; donor 4, 22484 μM",0.7039
same,"MCP-1 chemokine secretion, in words",[2],reduced MCP1 secretion in both donors but was only statistically significant in one of two donors
"CC(C)[C@H](N)C(=O)O [Valine, L-Valine]",TNFa Measurements Mean (baseline subtracted),"[1]; Donor 1, Conc. 234 μM (baseline), LPS 0.15 ng/mL",0
same,"Fold Change MCP1 Secretion Normalized Per Cell, Mean","[2]; donor 3, 4684 μM",1.0630
same,"Fold Change MCP1 Secretion Normalized Per Cell, Mean","[2]; donor 3, 11710 μM",1.0204
same,"Fold Change MCP1 Secretion Normalized Per Cell, Mean","[2]; donor 3, 23420 μM",1.2651
same,"Fold Change MCP1 Secretion Normalized Per Cell, Mean","[2]; donor 4, 4684 μM",1.0942
same,"Fold Change MCP1 Secretion Normalized Per Cell, Mean","[2]; donor 4, 11710 μM",1.1544
same,"Fold Change MCP1 Secretion Normalized Per Cell, Mean","[2]; donor 4, 23420 μM",1.1525
same,"MCP-1 chemokine secretion, in words",[2],no significant impact
"CC(C)C[C@H](N)C(=O)O [Leucine, L-Leucine]",TNFa Measurements Mean (baseline subtracted),"[1]; Donor 2, Conc. 153 μM (baseline), LPS 0.15 ng/mL",0
same,"LPS-induced TNFa secretion, in words","[1]; Donor 2, 0.15 ng/mL LPS",increased
same,"Fold Change MCP1 Secretion Normalized Per Cell, Mean","[2]; donor 3, 3054 μM",1.1479
same,"Fold Change MCP1 Secretion Normalized Per Cell, Mean","[2]; donor 3, 7635 μM",1.3054
same,"Fold Change MCP1 Secretion Normalized Per Cell, Mean","[2]; donor 3, 15270 μM",1.1808
same,"Fold Change MCP1 Secretion Normalized Per Cell, Mean","[2]; donor 4, 3054 μM",1.5342
same,"Fold Change MCP1 Secretion Normalized Per Cell, Mean","[2]; donor 4, 7635 μM",1.7129
same,"Fold Change MCP1 Secretion Normalized Per Cell, Mean","[2]; donor 4, 15270 μM",1.5745
same,"MCP-1 chemokine secretion, in words",[2],no significant impact
"CC[C@H](C)[C@H](N)C(=O)O [Isoleucine, L-Isoleucine]",TNFa Measurements Mean (baseline subtracted),"[1]; Donor 1, Conc. 66 μM (baseline), LPS 0.15 ng/mL",0
same,"LPS-induced TNFa secretion, in words","[1]; Donor 2, 0.15 ng/mL LPS",increased
same,"Fold Change MCP1 Secretion Normalized Per Cell, Mean","[2]; donor 3, 1328 μM",1.5550
same,"Fold Change MCP1 Secretion Normalized Per Cell, Mean","[2]; donor 3, 3320 μM",1.2169
same,"Fold Change MCP1 Secretion Normalized Per Cell, Mean","[2]; donor 3, 6639 μM",1.2084
same,"Fold Change MCP1 Secretion Normalized Per Cell, Mean","[2]; donor 4, 1328 μM",1.3338
same,"Fold Change MCP1 Secretion Normalized Per Cell, Mean","[2]; donor 4, 3320 μM",0.8830
same,"Fold Change MCP1 Secretion Normalized Per Cell, Mean","[2]; donor 4, 6639 μM",0.9103
"N=C(N)NCCC[C@H](N)C(=O)O [Arginine, L-Arginine]",TNFa Measurements Mean (baseline subtracted),"[1]; Donor 1, Conc. 109 μM (baseline), LPS 0.15 ng/mL",0
same,"MCP-1 chemokine secretion, in words",[2],no significant impact
